Test results taken from the supplement of paper PMC9663587.

Assays:
Neratinib/HKI272 = compound: CCOc1cc2ncc(C#N)c(Nc3ccc(OCc4ccccn4)c(Cl)c3)c2cc1NC(=O)/C=C/CN(C)C [Neratinib/HKI272]; test: increase in dead-cell fraction, 72 h; higher = more death;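 further: breast cancer cell lines in 384-well plates, stained with Hoechst plus LIVE/DEAD far red dye and imaged, cells above an LDR intensity threshold counted dead, Hoechst-negative corpses included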
[1] = compound: CCN1CCN(Cc2ccc(Nc3ncc(F)c(-c4cc(F)c5nc(C)n(C(C)C)c5c4)n3)nc2)CC1; test: as above
BSJ-03-123 = compound: CC(=O)c1c(C)c2cnc(Nc3ccc(N4CCN(CCOCCOCCOCCNC(=O)COc5cccc6c5C(=O)N(C5CCC(=O)NC5=O)C6=O)CC4)cn3)nc2n(C2CCCC2)c1=O [BSJ-03-123]; test: as above
Flavopiridol = compound: CN1CC[C@H](c2c(O)cc(O)c3c(=O)cc(-c4ccccc4Cl)oc23)[C@H](O)C1 [Flavopiridol]; test: as above
THZ531 = compound: CN(C)C/C=C/C(=O)Nc1ccc(C(=O)N2CCC[C@@H](Nc3ncc(Cl)c(-c4c[nH]c5ccccc45)n3)C2)cc1 [THZ531]; test: as above
THZ1 = compound: CN(C)C/C=C/C(=O)Nc1ccc(C(=O)Nc2cccc(Nc3ncc(Cl)c(-c4c[nH]c5ccccc45)n3)c2)cc1 [THZ1]; test: as above
LEE011/Ribociclib = compound: CN(C)C(=O)c1cc2cnc(Nc3ccc(N4CCNCC4)cn3)nc2n1C1CCCC1 [LEE011/Ribociclib]; test: as above
YKL-5-124 = compound: C=CC(=O)Nc1ccc(C(=O)Nc2[nH]nc3c2CN(C(=O)N[C@H](CN(C)C)c2ccccc2)C3(C)C)cc1 [YKL-5-124]; test: as above
[2] = compound: CC(=O)c1c(C)c2cnc(Nc3ccc(N4CCNCC4)cn3)nc2n(C2CCCC2)c1=O; test: as above
[3] = compound: CCc1cnn2c(NCc3ccc[n+]([O-])c3)cc(N3CCCC[C@H]3CCO)nc12; test: as above
[4] = compound: CCCCOc1c(C(=O)c2c(F)cc(C)cc2F)c[nH]c2nncc1-2
Saracatinib/AZD0530 = compound: CN1CCN(CCOc2cc(OC3CCOCC3)c3c(Nc4c(Cl)ccc5c4OCO5)ncnc3c2)CC1 [Saracatinib/AZD0530]
Luminespib/NVP-AUY922 = compound: CCNC(=O)c1noc(-c2cc(C(C)C)c(O)cc2O)c1-c1ccc(CN2CCOCC2)cc1 [Luminespib/NVP-AUY922]
BSJ-01-175 = compound: CN(C)C/C=C/C(=O)Nc1ccc(O[C@@H]2CCC[C@@H](Nc3ncc(Cl)c(-c4c[nH]c5ccccc45)n3)C2)cc1 [BSJ-01-175]
THZ-P1-2 = compound: CN(C)C/C=C/C(=O)NC1=CC=C(C=C1)C(=O)NC2=CC=CC(=C2)NC3=NC=NC(=C3)C4=CNC5=CC=CC=C54 [THZ-P1-2]
Ceritinib/LDK378 = compound: Cc1cc(Nc2ncc(Cl)c(Nc3ccccc3S(=O)(=O)C(C)C)n2)c(OC(C)C)cc1C1CCNCC1 [Ceritinib/LDK378]
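Wherever GR50, 72 h is given: breast cancer and non-malignant breast epithelial cell lines, Deep Dye Drop or Dye Drop imaging, nine half-log doses, GR normalized to time-zero plates and DMSO-only controls.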

Cell Line: HCC1569
- increase in dead-cell fraction (Neratinib/HKI272; 0.0003162 µM): -0.0105
- increase in dead-cell fraction (Neratinib/HKI272; 0.001 µM): 0.0063
- increase in dead-cell fraction (Neratinib/HKI272; 0.003162 µM): 0.0037
- increase in dead-cell fraction (Neratinib/HKI272; 0.01 µM): 0.0107
- increase in dead-cell fraction (Neratinib/HKI272; 0.03162 µM): 0.0135
- increase in dead-cell fraction (Neratinib/HKI272; 0.1 µM): 0.0196
- increase in dead-cell fraction (Neratinib/HKI272; 0.3162 µM): 0.0247
- increase in dead-cell fraction (Neratinib/HKI272; 1 µM): 0.0283
- increase in dead-cell fraction (Neratinib/HKI272; 3.162 µM): 0.0338
- increase in dead-cell fraction ([1]; 0.001 µM): -0.0009
- increase in dead-cell fraction ([1]; 0.003162 µM): 0.0054
- increase in dead-cell fraction ([1]; 0.01 µM): 0.0105
- increase in dead-cell fraction ([1]; 0.03162 µM): 0.0034
- increase in dead-cell fraction ([1]; 0.1 µM): -0.0024
- increase in dead-cell fraction ([1]; 0.3162 µM): -0.0047
- increase in dead-cell fraction ([1]; 1 µM): 0.0011
- increase in dead-cell fraction ([1]; 3.162 µM): 0.0024
- increase in dead-cell fraction ([1]; 10 µM): 0.0361
- increase in dead-cell fraction (BSJ-03-123; 0.001 µM): 0.0046
- increase in dead-cell fraction (BSJ-03-123; 0.003162 µM): -0.0135
- increase in dead-cell fraction (BSJ-03-123; 0.01 µM): 0.0005
- increase in dead-cell fraction (BSJ-03-123; 0.03162 µM): 0.0168
- increase in dead-cell fraction (BSJ-03-123; 0.1 µM): 0.002
- increase in dead-cell fraction (BSJ-03-123; 0.3162 µM): 0.0007
- increase in dead-cell fraction (BSJ-03-123; 1 µM): 0.0247
- increase in dead-cell fraction (BSJ-03-123; 3.162 µM): 0.0066
- increase in dead-cell fraction (BSJ-03-123; 10 µM): 0.0866
- increase in dead-cell fraction (Flavopiridol; 0.0001 µM): -0.0248
- increase in dead-cell fraction (Flavopiridol; 0.0003162 µM): 0.001
- increase in dead-cell fraction (Flavopiridol; 0.001 µM): 0.0101
- increase in dead-cell fraction (Flavopiridol; 0.003162 µM): 0.0075
- increase in dead-cell fraction (Flavopiridol; 0.01 µM): -0.0095
- increase in dead-cell fraction (Flavopiridol; 0.03162 µM): -0.0064
- increase in dead-cell fraction (Flavopiridol; 0.1 µM): 0.0067
- increase in dead-cell fraction (Flavopiridol; 0.3162 µM): 0.0986
- increase in dead-cell fraction (Flavopiridol; 1 µM): 0.102
- increase in dead-cell fraction (THZ531; 0.0001 µM): 0.0019
- increase in dead-cell fraction (THZ531; 0.0003162 µM): -0.0034
- increase in dead-cell fraction (THZ531; 0.001 µM): -0.0007
- increase in dead-cell fraction (THZ531; 0.003162 µM): 0.0032
- increase in dead-cell fraction (THZ531; 0.01 µM): 0.0103
- increase in dead-cell fraction (THZ531; 0.03162 µM): 0.0155
- increase in dead-cell fraction (THZ531; 0.1 µM): 0.161
- increase in dead-cell fraction (THZ531; 0.3162 µM): 0.273
- increase in dead-cell fraction (THZ531; 1 µM): 0.0822
- increase in dead-cell fraction (THZ1; 0.0001 µM): -0.004
- increase in dead-cell fraction (THZ1; 0.0003162 µM): -0.0128
- increase in dead-cell fraction (THZ1; 0.001 µM): 0.0063
- increase in dead-cell fraction (THZ1; 0.003162 µM): -0.0051
- increase in dead-cell fraction (THZ1; 0.01 µM): 0.0163
- increase in dead-cell fraction (THZ1; 0.03162 µM): 0.0231
- increase in dead-cell fraction (THZ1; 0.1 µM): 0.208
- increase in dead-cell fraction (THZ1; 0.3162 µM): 0.147
- increase in dead-cell fraction (THZ1; 1 µM): 0.166
- increase in dead-cell fraction (LEE011/Ribociclib; 0.001 µM): 0.0294
- increase in dead-cell fraction (LEE011/Ribociclib; 0.003162 µM): 0.0001
- increase in dead-cell fraction (LEE011/Ribociclib; 0.01 µM): -0.0082
- increase in dead-cell fraction (LEE011/Ribociclib; 0.03162 µM): 0.0025
- increase in dead-cell fraction (LEE011/Ribociclib; 0.1 µM): -0.0135
- increase in dead-cell fraction (LEE011/Ribociclib; 0.3162 µM): -0.0045
- increase in dead-cell fraction (LEE011/Ribociclib; 1 µM): -0.0042
- increase in dead-cell fraction (LEE011/Ribociclib; 3.162 µM): -0.0048
- increase in dead-cell fraction (LEE011/Ribociclib; 10 µM): -0.0015
- increase in dead-cell fraction (YKL-5-124; 0.001 µM): 0.0331
- increase in dead-cell fraction (YKL-5-124; 0.003162 µM): 0.014
- increase in dead-cell fraction (YKL-5-124; 0.01 µM): -0.0042
- increase in dead-cell fraction (YKL-5-124; 0.03162 µM): 0.0104
- increase in dead-cell fraction (YKL-5-124; 0.1 µM): -0.0403
- increase in dead-cell fraction (YKL-5-124; 0.3162 µM): 0.0447
- increase in dead-cell fraction (YKL-5-124; 1 µM): 0.0404
- increase in dead-cell fraction (YKL-5-124; 3.162 µM): 0.0237
- increase in dead-cell fraction (YKL-5-124; 10 µM): 0.151
- increase in dead-cell fraction ([2]; 0.0003162 µM): 0.0023
- increase in dead-cell fraction ([2]; 0.001 µM): -0.0102
- increase in dead-cell fraction ([2]; 0.003162 µM): 0.0038
- increase in dead-cell fraction ([2]; 0.01 µM): 0.0052
- increase in dead-cell fraction ([2]; 0.03162 µM): -0.0056
- increase in dead-cell fraction ([2]; 0.1 µM): -0.0096
- increase in dead-cell fraction ([2]; 0.3162 µM): 0.0042
- increase in dead-cell fraction ([2]; 1 µM): 0.0001
- increase in dead-cell fraction ([2]; 3.162 µM): -0.0109
- increase in dead-cell fraction ([3]; 0.0001 µM): -0.0022
- increase in dead-cell fraction ([3]; 0.0003162 µM): -0.0018
- increase in dead-cell fraction ([3]; 0.001 µM): -0.0077
- increase in dead-cell fraction ([3]; 0.003162 µM): -0.0052
- increase in dead-cell fraction ([3]; 0.01 µM): 0.0106
- increase in dead-cell fraction ([3]; 0.03162 µM): 0.112
- increase in dead-cell fraction ([3]; 0.1 µM): 0.155
- increase in dead-cell fraction ([3]; 0.3162 µM): 0.138
- increase in dead-cell fraction ([3]; 1 µM): 0.141
- GR50, 72 h [4]: 0.0109 µM
- GR50, 72 h (Saracatinib/AZD0530): 3.28 µM
- GR50, 72 h (Luminespib/NVP-AUY922): 0.0107 µM
- GR50, 72 h (BSJ-01-175): 0.00923 µM
- GR50, 72 h (THZ-P1-2): 4.75 µM
- GR50, 72 h (Ceritinib/LDK378): 4.5 µM
